Experimental data as given in EPA's ToxRefDB 2.

Legend:
rat [1] = settings: Prenatal developmental toxicity study, wistar, Oral, Gavage/Intubation, dose end: 15 GD
rabbit = settings: Sub-acute dermal toxicity, new zealand white, Topical, dose end: 21 day, group: systemic, systemic / pathology gross / skin / scabbing + systemic / pathology microscopic / skin / acanthosis + systemic / pathology microscopic / …
rat [2] = settings: Prenatal developmental toxicity study, sprague dawley, Oral, Gavage/Intubation, dose end: 15 GD
mouse [3] = settings: Carcinogenicity; b6c3f1; Oral; Gavage; dose end: 103 week; group: systemic; systemic / organ weight / kidney / absolute + systemic / pathology microscopic / kidney / nephropathy + systemic / pathology microscopic / …
rat [4] = settings: Subchronic oral toxicity in rodents, fischer, Gavage/Intubation, dose end: 13 week, group: systemic
mouse [5] = settings: Sub-acute repeat dose toxicity, b6c3f1, Oral, Gavage/Intubation, dose end: 16 day, group: systemic
rat [6] = settings: Sub-acute repeat dose toxicity, fischer, Oral, Gavage/Intubation, dose end: 16 day, group: systemic
rat [7] = settings: Combined chronic toxicity/carcinogenicity, fischer, Oral, Gavage/Intubation, dose end: 103 week, group: systemic
rat [8] = settings: Subchronic oral toxicity in rodents, fischer, Gavage/Intubation, dose end: 13 week, group: systemic; remark: listed apart in the source
[9] = group: developmental, systemic / in life observation / body weight / fetal weight
[10] = group: maternal, systemic / in life observation / body weight / body weight gain
[11] = group: maternal, systemic / in life observation / body weight / body weight gain + systemic / in life observation / clinical signs / mucoid stools + systemic…
[12] = group: developmental, developmental / developmental malformation / general / runts + systemic / in life observation / body weight / fetal weight
[13] = group: maternal, systemic / in life observation / body weight / body weight + systemic / in life observation / body weight / body weight gain + systemic / in…
[14] = systemic / clinical chemistry / creatinine / creatinine + systemic / clinical chemistry / urea nitrogen / urea nitrogen + systemic / organ …
[15] = systemic / clinical chemistry / creatinine / creatinine + systemic / clinical chemistry / urea nitrogen / urea nitrogen + systemic / …
[16] = systemic / in life observation / clinical signs / abnormal posture + systemic / in life observation / clinical signs / fur (altered …
[17] = systemic / pathology gross / intestine large / dilatation
[18] = systemic / organ weight / kidney / absolute + systemic / organ weight / kidney / relative to body weight + systemic / pathology microscopic…
[19] = systemic / pathology microscopic / kidney / nephropathy + systemic / urinalysis / coporphoryin / coporphoryin
[20] = systemic / in life observation / clinical signs / alopecia + systemic / in life observation / clinical signs / urogenital staining

Q: What does the source list for `Oc1ccc(Cl)cc1Cc1ccccc1` [Clorophene]?
A: LEL (rat [1]; [9]): 375 mg/kg/day; LOAEL (rat [1]; [9]): 375 mg/kg/day; NEL (rat [1]; [9]): 75 mg/kg/day; NOAEL (rat [1]; [9]): 75 mg/kg/day; LEL (rat [1]; [10]): 75 mg/kg/day; LOAEL (rat [1]; [10]): 75 mg/kg/day; NEL (rat [1]; [11]): 15 mg/kg/day; NOAEL (rat [1]; [11]): 15 mg/kg/day; LEL (rabbit): 5 mg/kg/day; LOAEL (rabbit): 5 mg/kg/day; NEL (rabbit): 1 mg/kg/day; NOAEL (rabbit): 1 mg/kg/day; LEL (rat [2]; [12]): 1000 mg/kg/day; LOAEL (rat [2]; [12]): > 1000 mg/kg/day; NEL (rat [2]; [12]): 300 mg/kg/day; NOAEL (rat [2]; [12]): ≥ 1000 mg/kg/day; LOAEL (rat [2]; [13]): > 1000 mg/kg/day; NEL (rat [2]; [13]): 100 mg/kg/day; NOAEL (rat [2]; [13]): ≥ 1000 mg/kg/day; LEL (rat [2]; group: maternal, systemic / in life observation / body weight / body weight + systemic / in life observation / water consumption / water consumption): 300 mg/kg/day; LEL (mouse [3]): 120 mg/kg/day; LOAEL (mouse [3]): 120 mg/kg/day; NEL (mouse [3]): < 120 mg/kg/day; NOAEL (mouse [3]): < 120 mg/kg/day; LOAEL (rat [4]; [14]): 240 mg/kg/day; NOAEL (rat [4]; [14]): 120 mg/kg/day; LEL (rat [4]; [15]): 30 mg/kg/day; NEL (rat [4]; [15]): < 30 mg/kg/day; LOAEL (mouse [5]; [16]): > 1000 mg/kg/day; NEL (mouse [5]; [16]): 62.5 mg/kg/day; NOAEL (mouse [5]; [16]): ≥ 1000 mg/kg/day; LEL (mouse [5]; [17]): 125 mg/kg/day; LOAEL (rat [6]; [18]): 1000 mg/kg/day; NOAEL (rat [6]; [18]): 500 mg/kg/day; LEL (rat [6]; [17]): 62.5 mg/kg/day; NEL (rat [6]; [17]): < 62.5 mg/kg/day; NEL (rat [7]; systemic / in life observation / clinical signs / urogenital staining + systemic / organ weight / heart / absolute + systemic / organ weight…): 240 mg/kg/day; LOAEL (rat [7]; [19]): 30 mg/kg/day; NOAEL (rat [7]; [19]): < 30 mg/kg/day; LEL (rat [8]; [20]): 30 mg/kg/day; NEL (rat [8]; [20]): < 30 mg/kg/day; LOAEL (rat [8]; [18]): 480 mg/kg/day; NOAEL (rat [8]; [18]): 240 mg/kg/day
